Experimental data published in patent US5334595A, “Pyrazoloquinolones as anticancer agents” (priority 1992, dated 1994).
Read-outs that look alike come from different tables or passages of the source.

Tests used:
[1] = test system: P388 murine leukemia cells; assay: In vitro cytotoxicity, one-hour exposure, clonogenic survival of P388 cells; format: cell-based; conditions: Mus musculus, read-out: in vitro cytotoxicity IC50, 1 hr exp.; P388, 1 hr exposure
Procedure: (§1) In vitro cytotoxicity was assayed by determining cell survival following exposure of P388 murine leukemia cells to a range of test compound concentrations. Cytotoxicity was quantitated following either a one-hour exposure or continuous exposure of P388 cells to test compound.
(§2) A Manual of Basic Technique. […] Briefly, following drug exposure cells were plated in soft agar and incubated (37°, 5% CO2) for 7-10 days during which time viable cells form visible colonies. Cytotoxicity following continuous exposure of cells to test compound was assayed by quantitating total P388 cells on a Coultier Counter following a 48-hour co-incubation of test compound with cells. P388 cells were maintained in log phase throughout the duration of cytotoxicity assays.
(§3) The percentage of cells surviving relative to an untreated control was graphed as a function of increasing drug concentration.

[2] = target: T1, human topoisomerase II (Homo sapiens, UniProt P11388); assay: Mammalian topoisomerase II inhibition assay (topo II covalently attached to DNA, relative to mAMSA); format: biochemical; conditions: read-out: topo II inh. EC50
T1 construct: Topo II was purified from late log phase suspension cultures of HeLa WIS; endogenous in cells; host or cells: HeLa WIS
T1 sequence (P11388 whole entry): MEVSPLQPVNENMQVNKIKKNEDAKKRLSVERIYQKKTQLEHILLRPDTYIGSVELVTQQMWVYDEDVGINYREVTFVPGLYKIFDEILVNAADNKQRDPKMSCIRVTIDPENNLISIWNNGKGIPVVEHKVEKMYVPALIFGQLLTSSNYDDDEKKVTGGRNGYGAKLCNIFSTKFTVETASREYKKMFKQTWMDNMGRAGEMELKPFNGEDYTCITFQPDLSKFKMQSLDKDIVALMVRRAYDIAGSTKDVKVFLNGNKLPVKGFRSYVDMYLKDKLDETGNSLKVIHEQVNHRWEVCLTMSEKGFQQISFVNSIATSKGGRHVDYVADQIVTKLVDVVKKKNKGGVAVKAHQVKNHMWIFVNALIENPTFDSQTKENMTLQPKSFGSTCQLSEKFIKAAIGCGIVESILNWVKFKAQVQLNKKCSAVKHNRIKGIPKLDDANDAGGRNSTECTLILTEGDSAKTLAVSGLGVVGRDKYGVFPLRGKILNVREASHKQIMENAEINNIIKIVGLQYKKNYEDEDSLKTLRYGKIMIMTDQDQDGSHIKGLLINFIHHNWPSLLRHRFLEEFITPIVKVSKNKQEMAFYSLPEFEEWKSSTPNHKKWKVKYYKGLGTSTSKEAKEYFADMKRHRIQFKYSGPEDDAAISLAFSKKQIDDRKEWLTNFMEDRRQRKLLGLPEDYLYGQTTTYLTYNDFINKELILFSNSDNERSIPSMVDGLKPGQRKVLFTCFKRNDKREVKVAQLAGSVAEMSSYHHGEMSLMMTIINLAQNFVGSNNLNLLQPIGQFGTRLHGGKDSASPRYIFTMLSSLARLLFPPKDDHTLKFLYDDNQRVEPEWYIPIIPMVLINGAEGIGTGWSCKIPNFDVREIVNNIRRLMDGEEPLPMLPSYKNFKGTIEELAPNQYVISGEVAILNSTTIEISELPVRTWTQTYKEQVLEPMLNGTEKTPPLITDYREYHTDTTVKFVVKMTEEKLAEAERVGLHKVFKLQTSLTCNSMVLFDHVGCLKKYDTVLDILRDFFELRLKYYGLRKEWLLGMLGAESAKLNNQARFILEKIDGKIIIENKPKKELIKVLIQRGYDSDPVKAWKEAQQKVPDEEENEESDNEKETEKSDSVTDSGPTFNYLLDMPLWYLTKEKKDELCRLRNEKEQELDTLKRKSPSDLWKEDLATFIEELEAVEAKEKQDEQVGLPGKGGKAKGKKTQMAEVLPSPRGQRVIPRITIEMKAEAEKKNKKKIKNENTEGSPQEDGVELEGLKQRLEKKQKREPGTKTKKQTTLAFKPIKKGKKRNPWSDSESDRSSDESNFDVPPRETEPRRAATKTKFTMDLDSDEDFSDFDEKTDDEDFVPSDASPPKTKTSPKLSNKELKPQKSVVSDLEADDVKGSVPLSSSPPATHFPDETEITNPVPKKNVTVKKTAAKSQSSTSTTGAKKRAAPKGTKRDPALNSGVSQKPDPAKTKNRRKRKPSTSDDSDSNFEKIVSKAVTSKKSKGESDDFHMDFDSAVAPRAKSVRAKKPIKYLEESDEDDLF
From the text: The inhibition of human topoisomerase II (hereafter topo II) was quantitated by a procedure adapted from that described by Trask et al., EMBO J., 3, 671-676 (1984). The assay quantitates the amount of topo II covalently attached to DNA at equilibrium during a topo II reaction. This assay determines the potential of a compound to stabilize this complex, which potential is closely related to the cytotoxicity of the compound.
Topo II was purified from late log phase suspension cultures of HeLa WIS by an adaptation of the method described by Per et al., Mol. Pharmacol., 32, 17-25 (1987).
Assays (in duplicate) were assembled at 4° C. Assay mix (25 μl) was distributed in Beckman (No. 265270) 1.5 mL microtiter tubes followed by the addition of 5 μl test compound to yield the final concentrations of assay components:
The assay mix including the test compound was incubated for 20 minutes at 37° C. The reaction was terminated at 37° C. by the addition of 3 μl 10% SDS followed by the addition of 266 μl 10 mM Tris-Cl pH 7.5, 20 μg/ml BSA, 20 μg/ml calf thymus DNA, 1% SDS.
A SDS/protein precipitate was formed by the addition of 28 μl 2.5M KCl followed by chilling on ice for a minimum of 10 minutes. The precipitate was collected and washed with a Brandell cell harvester on a GFB glass fiber filter membrane as follows. The contents of the assay tube were drawn up into the harvester. The tube was then rinsed 7× with 10 mM Tris-Cl pH 7.5, 1 mM EDTA and 100 mM KCl. The precipitate was washed with 1 L of a solution of 10 mM Tris-Cl pH 7.5, 1 mMEDTA, 100 mM KCl followed by 1 L of 95% ethyl alcohol and finally 0.5 L 70% of ethyl alcohol (per 48 samples in each case). After drying, CPM was determined by liquid scintillation counting with 5 ml Biofluor (NEN Research Products) or Readisafe (Beckman Instruments Inc.) cocktail.
Preparation of test compound--A stock solution (6 mg/ml) of test compound was prepared either in 0.1N sodium hydroxide or 0.2N hydrogen chloride. This solution then was diluted 1/5 into water and serially thereafter in either 0.02N sodium hydroxide or 0.04N hydrogen chloride, respectively. The stock solution and serial dilution of the test compound was stored at -20° C. prior to testing.
Screening of test compound--As an initial screen, the test compound was tested at a final concentration of 2, 20 and 200 μg/ml. The compound was then retested at a range of concentrations (usually 2-3×steps) bridging their approximate EC50 's, as estimated by the prescreen.
Controls--A solvent control which indicates the base level of topo II-DNA complex formed in the absence of the test compound was included in each test. A control, in which topo II was omitted, was included for each test compound at the highest drug concentration tested.
Reference Agent--A dose response curve with mAMSA at 0.01, 0.08, 0.16, 0.32, 1.0 and 10 μg/ml was included in each test.
The maximal DNA-topo II complex formed is taken as that equal to that formed at the nearly saturating dose of mAMSA (10 μg/ml).

[3] = test system: P388 murine leukemia cells; assay: In vitro cytotoxicity, continuous (48-hour) exposure of P388 cells; format: cell-based; conditions: Mus musculus; P388, continuous exposure (48-hour); read-out: in vitro cytotoxicity IC50, cont. exp.
Procedure: as §1, §2, §3

[4] = conc. achieving 50% of maximal effect of mAMSA, topo II from HeLa cells
[5] = footnote c: bell-shaped dose response curve noted, 50% of maximal effect of mAMSA

SMILES | IC50 [1] [µM] | EC50 [2, 4] [µM] | IC50 [3] [µM] | EC50 [2] [µM] | EC50 [2, 5] [µM]
CO[C@@H]1CCCC[C@@H]1n1nc2c3cc(F)c(-c4cc(C)nc(C)c4)c(F)c3n(C3CC3)cc-2c1=O (relative stereo) [Example 45] | 0.57 | 6.3 | – | – | –
Cc1cc(-c2c(F)cc3c4nn(CC(F)(F)F)c(=O)c-4cn(C4CC4)c3c2F)cc(C)n1 [Example 2] | – | 6.8 | 1.4 | – | –
Cc1cc(-c2c(F)cc3c4nn(C(C)C)c(=O)c-4cn(C4CC4)c3c2F)cc(C)n1 [Example 3, 5-Cyclopropyl-6,8-difluoro-7-(2,6-dimethyl-4-pyridinyl)-2,5-dihydro-2-(2-propyl) -3H-pyrazolo[4,3-c]quinolin-3-one] | – | 5 | 0.53 | – | –
CCCCn1nc2c3cc(F)c(-c4cc(C)nc(C)c4)c(F)c3n(C3CC3)cc-2c1=O [Example 4, 2-(1-Butyl)-5-cyclopropyl-6,8-difluoro-2,5-dihydro-7-(2,6-dimethyl-4-pyridinyl) -3H-pyrazolo[4,3-c]quinolin-3-one] | – | 2.9 | 1.5 | – | –
Cc1cc(-c2c(F)cc3c4nn(-c5ccccc5O)c(=O)c-4cn(C4CC4)c3c2F)cc(C)n1 [Example 5, 5-Cyclopropyl-6,8-difluoro-2,5-dihydro-2-(2-hydroxyphenyl)-7-(2,6-dimethyl-4-pyridinyl) -3H-pyrazolo[4,3-c]quinolin-3-one] | – | 1.2 | 0.15 | – | –
Cc1cc(-c2c(F)cc3c4nn(C)c(=O)c-4cn(C4CC4)c3c2F)cc(C)n1 [Example 7] | – | 5.9 | 0.51 | – | –
Cc1cc(-c2c(F)cc3c4nn(C(C)(C)C)c(=O)c-4cn(C4CC4)c3c2F)cc(C)n1 [Example 8] | – | 6.9 | 3.5 | – | –
CCOC(=O)Cn1nc2c3cc(F)c(-c4cc(C)nc(C)c4)c(F)c3n(C3CC3)cc-2c1=O [Example 9] | – | 6.1 | 0.15 | – | –
Cc1cc(-c2c(F)cc3c4nn(CCO)c(=O)c-4cn(C4CC4)c3c2F)cc(C)n1 [Example 10] | – | 6.4 | 1.4 | – | –
Cc1cc(-c2c(F)cc3c4nn(CCCCO)c(=O)c-4cn(C4CC4)c3c2F)cc(C)n1 [Example 11] | – | 4.2 | 0.88 | – | –
COC(Cn1nc2c3cc(F)c(-c4cc(C)nc(C)c4)c(F)c3n(C3CC3)cc-2c1=O)OC [Example 12] | – | 23 | – | – | –
Cc1cc(-c2c(F)cc3c4nn(CCC#N)c(=O)c-4cn(C4CC4)c3c2F)cc(C)n1 [Example 13] | – | 6.7 | 1.4 | – | –
CCN(CC)CCn1nc2c3cc(F)c(-c4cc(C)nc(C)c4)c(F)c3n(C3CC3)cc-2c1=O [Example 15] | 0.45 | – | – | 93 | –
Cc1cc(-c2c(F)cc3c4nn(CCN5CCCCC5)c(=O)c-4cn(C4CC4)c3c2F)cc(C)n1 [Example 19] | 0.44 | – | – | 210 | –
Cc1ccc(-n2nc3c4cc(F)c(-c5cc(C)nc(C)c5)c(F)c4n(C4CC4)cc-3c2=O)cc1 [Example 24] | – | 8.9 | 4.9 | – | –
Cc1cc(-c2c(F)cc3c4nn(-c5c(F)c(F)c(F)c(F)c5F)c(=O)c-4cn(C4CC4)c3c2F)cc(C)n1 [Example 25] | – | 3.4 | 2.2 | – | –
COc1ccccc1-n1nc2c3cc(F)c(-c4cc(C)nc(C)c4)c(F)c3n(C3CC3)cc-2c1=O [Example 26] | – | 5 | 0.34 | – | –
Cc1cc(-c2c(F)cc3c4nn(-c5ccc(O)cc5)c(=O)c-4cn(C4CC4)c3c2F)cc(C)n1 [Example 27] | – | 4.9 | 2.6 | – | –
Cc1cc(-c2c(F)cc3c4nn(-c5cccc6ccccc56)c(=O)c-4cn(C4CC4)c3c2F)cc(C)n1 [Example 28] | – | 2.9 | 0.32 | – | –

SMILES | IC50 [1] [µM] | EC50 [2, 4] [µM] | IC50 [3] [µM] | EC50 [2] [µM] | EC50 [2, 5] [µM]
Cc1cc(-c2c(F)cc3c4nn(-c5ccccn5)c(=O)c-4cn(C4CC4)c3c2F)cc(C)n1 [Example 29] | – | 2.8 | 0.74 | – | –
Cc1cc(-c2c(F)cc3c4nn(-c5ccncc5)c(=O)c-4cn(C4CC4)c3c2F)cc(C)n1 [Example 30] | – | – | 1.2 | – | 8
Cc1cc(-c2c(F)cc3c4nn(Cc5ccccc5)c(=O)c-4cn(C4CC4)c3c2F)cc(C)n1 [Example 31] | – | 3.7 | 0.14 | – | –
COc1ccccc1Cn1nc2c3cc(F)c(-c4cc(C)nc(C)c4)c(F)c3n(C3CC3)cc-2c1=O [Example 32] | – | 5.1 | 1.2 | – | –
Cc1cc(-c2c(F)cc3c4nn(Cc5ccccc5O)c(=O)c-4cn(C4CC4)c3c2F)cc(C)n1 [Example 33] | – | 3.8 | 1.4 | – | –
COc1ccc(Cn2nc3c4cc(F)c(-c5cc(C)nc(C)c5)c(F)c4n(C4CC4)cc-3c2=O)cc1 [Example 34] | – | 3.2 | 0.44 | – | –
Cc1cc(-c2c(F)cc3c4nn(Cc5ccc(O)cc5)c(=O)c-4cn(C4CC4)c3c2F)cc(C)n1 [Example 35] | – | 1.5 | 0.25 | – | –
COc1cc(Cn2nc3c4cc(F)c(-c5cc(C)nc(C)c5)c(F)c4n(C4CC4)cc-3c2=O)cc(OC)c1OC [Example 36] | – | 6.4 | 1.2 | – | –
Cc1cc(-c2c(F)cc3c4nn(CCc5ccccc5)c(=O)c-4cn(C4CC4)c3c2F)cc(C)n1 [Example 37] | – | 5 | 2.2 | – | –
COc1ccccc1CCn1nc2c3cc(F)c(-c4cc(C)nc(C)c4)c(F)c3n(C3CC3)cc-2c1=O [Example 38] | – | 11 | – | – | –
Cc1cc(-c2c(F)cc3c4nn(CCc5ccccc5O)c(=O)c-4cn(C4CC4)c3c2F)cc(C)n1 [Example 39] | – | – | – | – | 9.6
Cc1cc(-c2c(F)cc3c4nn(C5CCc6ccccc6C5)c(=O)c-4cn(C4CC4)c3c2F)cc(C)n1 (centres unmarked) [Example 44] | – | 3.7 | 1.5 | – | –
Cc1cc(-c2c(F)cc3c4nn(C5CCC(C)CC5)c(=O)c-4cn(C4CC4)c3c2F)cc(C)n1 (centres unmarked) [Example 47] | 1.4 | 3.1 | – | – | –
Cc1cc(-c2c(F)cc3c4nn(C5CCC(c6ccccc6)CC5)c(=O)c-4cn(C4CC4)c3c2F)cc(C)n1 (centres unmarked) [Example 48] | 8.4 | 4.5 | – | – | –
CC(=O)N[C@H]1CC[C@@H](n2nc3c4cc(F)c(-c5cc(C)nc(C)c5)c(F)c4n(C4CC4)cc-3c2=O)CC1 [Example 52a] | 1.3 | 7.4 | – | – | –
CC(=O)N[C@H]1CC[C@H](n2nc3c4cc(F)c(-c5cc(C)nc(C)c5)c(F)c4n(C4CC4)cc-3c2=O)CC1 [Example 52b] | 1.2 | 9.8 | – | – | –
Cc1cc(-c2c(F)cc3c4nn(CC(=O)O)c(=O)c-4cn(C4CC4)c3c2F)cc(C)n1 [Example 53, 2-[5-Cyclopropyl-6,8-difluoro-2,5-dihydro-7-(2,6-dimethyl-4-pyridinyl)-3-oxo-3H-pyrazolo[4,3-c]quinolinyl]acetic acid] | – | 10 | 18 | – | –
Cc1cc(-c2c(F)cc3c4nn([C@H]5CC[C@@H](NC=O)CC5)c(=O)c-4cn(C4CC4)c3c2F)cc(C)n1 [Example 57, 2-(cis-4-formamidocyclohexyl)-5-cyclopropyl-6,8-difluoro-2,5-dihydro-7-(2,6-dimethyl-4-pyridinyl)-3H-pyrazolo[4,3-c]quinolin-3-one] | 5.1 | 0.8 | – | – | –
